Legend:
log P by HPLC = type: physicochemical
Sphaerotheca fuliginea = assay: Spaerotheca test (cucumber)/protective; type: in vivo; details: protective, application rate 750 g/ha, evaluation 7 days after inoculation
Experimental: Spaerotheca Test (Cucumber)/Protective • Solvent: 49 parts by weight of N,N-dimethylformamide • Emulsifier: 1 part by weight of alkylaryl polyglycol ether To produce a suitable preparation of active compound, 1 part by weight of active compound is mixed with the stated amounts of solvent and emulsifier and the concentrate is diluted with water to the desired concentration. To test for protective activity, the young cucumber plants are sprayed with the active compound preparation at the application rate indicated. 1 day after treatment, the plants are inoculated with a spore suspension of Sphaerotheca fuliginea. The plants are then placed in a greenhouse at a temperature of 23° C. and at a relative humidity of 70%. Evaluation is made 7 days after inoculation. 0% denotes an efficacy corresponding to that of the control, while an efficacy of 100% denotes that no infestation is observed.

Podosphaera leucotricha = assay: Podosphaera test (apple)/protective; type: in vivo; details: protective, application rate 100 g/ha, evaluation 10 days after inoculation
Experimental: Podosphaera Test (Apple)/Protective • Solvent: 24.5 parts by weight of acetone • 24.5 parts by weight of dimethylacetamide • Emulsifier: 1 part by weight of alkylaryl polyglycol ether
To produce a suitable preparation of active compound, 1 part by weight of active compound is mixed with the stated amounts of solvent and emulsifier and the concentrate is diluted with water to the desired concentration.
To test for protective activity, the young plants are sprayed with the active compound preparation at the application rate indicated. After the spray coating has dried on, the plants are inoculated with an aqueous spore suspension of the apple mildew causative organism Podosphaera leucotricha. The plants are then placed in a greenhouse at about 23° C. and at a relative humidity of about 70%.
Evaluation is made 10 days after inoculation. 0% denotes an efficacy corresponding to that of the control, while an efficacy of 100% denotes that no infestation is observed.

Puccinia recondita = assay: Puccinia test (wheat)/protective; type: in vivo; details: protective, application rate 500 g/ha, evaluation 10 days after inoculation
Experimental: Puccinia Test (Wheat)/Protective • Solvent: 25 parts by weight of N,N-dimethylacetamide • Emulsifier: 0.6 part by weight of alkylaryl polyglycol ether To produce a suitable preparation of active compound, 1 part by weight of active compound is mixed with the stated amounts of solvent and emulsifier and the concentrate is diluted with water to the desired concentration. To test for protective activity, the young plants are sprayed with the active compound preparation at the application rate indicated. After the spray coating has dried on, the plants are sprayed with a conidia suspension of Puccinia recondita. The plants spend 48 hours at 20° C. and 100% relative humidity in an incubation cabin. The plants are then placed in a greenhouse at a temperature of about 20° C. and a relative humidity of 80% in order to promote the development of rust pustules. Evaluation is made 10 days after inoculation. 0% denotes an efficacy corresponding to that of the control, while an efficacy of 100% denotes that no infestation is observed.

[1] = HPLC, gradient method, acetonitrile/0.1% aqueous phosphoric acid, EEC directive 79/831 Annex V. A8
[2] = EEC directive 79/831 Annex V. A8 by HPLC (gradient method, acetonitrile/0.1% aqueous phosphoric acid)

SMILES	logP (log P by HPLC; [1])	further results
CCc1nc2nc(Cl)c(-c3c(F)cc(F)cc3F)c(N[C@@H](C)C(F)(F)F)n2n1 [Example 4]	–	chromatographic logP (log P by HPLC; [1]): 3.39; Efficacy in % (Sphaerotheca fuliginea): 93%
Fc1cc(F)c(-c2c(Cl)nc3nc(C(F)(F)F)nn3c2NCC(F)(F)F)c(F)c1 [Example 8]	–	chromatographic logP (log P by HPLC; [1]): 3.64; Efficacy in % (Podosphaera leucotricha): 100%; Efficacy in % (Sphaerotheca fuliginea): 100%
C[C@H](Nc1c(-c2c(F)cc(F)cc2F)c(Cl)nc2nc(C(F)(F)F)nn12)C(F)(F)F [Example 3]	–	chromatographic logP (log P by HPLC; [1]): 3.94; Efficacy in % (Puccinia recondita): 100%; Efficacy in % (Sphaerotheca fuliginea): 93%
Fc1cc(F)c(-c2c(Cl)nc3nc(C(F)(F)F)nn3c2NCCC(F)(F)F)c(F)c1 [Example 7]	–	chromatographic logP (log P by HPLC; [1]): 3.76; Efficacy in % (Podosphaera leucotricha): 100%; Efficacy in % (Sphaerotheca fuliginea): 100%
Cc1nc2nc(Cl)c(-c3ccccc3Cl)c(N(C)Cc3ccco3)n2n1 [compound 238]	3.2	–
Cc1nc2nc(Cl)c(-c3c(F)cc(F)cc3F)c(NC3CC3F)n2n1 (stereo not shown) [compound 439]	–	logP (log P by HPLC; [2]): 2.3
CCc1nc2nc(Cl)c(-c3c(F)cc(F)cc3F)c(NCC3CC3)n2n1 [compound 81]	3.23	–
Cc1nc2nc(Cl)c(-c3ccc(F)cc3F)c(N3CCCC3)n2n1 [compound 281]	–	logP (log P by HPLC; [2]): 2.74
Cc1nc2nc(Cl)c(-c3c(F)cccc3Cl)c(NCC#N)n2n1 [compound 253]	2.11	–
Cc1nc2nc(Cl)c(-c3ccc(F)cc3Cl)c(N[C@@H](C)C(F)(F)F)n2n1 (single isomer, unassigned) [compound 642]	3.17	–
CCC(C)Nc1c(-c2c(F)cccc2F)c(Cl)nc2nc(C)nn12 (stereo not shown) [compound 187]	2.82	–
Cc1nc2nc(Cl)c(-c3c(F)cccc3F)c(N3CC=CCC3)n2n1 [compound 308]	–	logP (log P by HPLC; [2]): 3.01
Cc1nc2nc(Cl)c(-c3ccccc3F)c(NOC(C)C)n2n1 [compound 378]	–	logP (log P by HPLC; [2]): 2.54
CN(C)C1CCN(c2c(-c3ccc(F)cc3F)c(Cl)nc3nc(C(F)(F)F)nn23)C1 (stereo not shown) [compound 795]	1.67	–
C=C(C)CNc1c(-c2c(F)cccc2Cl)c(Cl)nc2nc(C3CC3)nn12 [compound 483]	–	logP (log P by HPLC; [2]): 3.31
CC(C)Nc1c(-c2c(F)cccc2F)c(Cl)nc2nc(C3CC3)nn12 [compound 739]	3.14	–
CC1CCCCN1c1c(-c2c(F)cc(F)cc2F)c(Cl)nc2nc(C3CC3)nn12 (stereo not shown) [compound 674]	4.6	–
Fc1ccc(-c2c(Cl)nc3nc(C4CC4)nn3c2N2CCC(N3CCOCC3)CC2)c(F)c1 [compound 734]	1.55	–
Cc1nc2nc(Cl)c(-c3c(F)cc(F)cc3F)c(NC(C)C)n2n1 [compound 26]	2.71	–
CC(Nc1c(-c2ccc(Cl)cc2Cl)c(Cl)nc2nc(C3CC3)nn12)C(=O)O (stereo not shown) [compound 774]	2.7	–
COC(=O)C1CCN(c2c(-c3c(F)cccc3F)c(Cl)nc3nc(C)nn23)CC1 [compound 318]	–	logP (log P by HPLC; [2]): 2.69
Cc1nc2nc(Cl)c(-c3ccccc3F)c(N3CCC(N4CCOCC4)CC3)n2n1 [compound 322]	–	logP (log P by HPLC; [2]): 1.26
Fc1ccc(-c2c(Cl)nc3nc(C(F)(F)F)nn3c2NCC2CC2)c(F)c1 [compound 533]	3.8	–
Cc1nc2nc(Cl)c(-c3ccc(F)cc3F)c(N(C)CCN(C)C)n2n1 [compound 350]	–	logP (log P by HPLC; [2]): 1.23
CCc1nc2nc(Cl)c(-c3c(F)cc(F)cc3F)c(NCC(F)(F)F)n2n1 [compound 5]	3.06	–
CC1(C)CCN(c2c(-c3ccc(F)cc3F)c(Cl)nc3nc(C(F)(F)F)nn23)CC1 [compound 800]	5.03	–
Cc1nc2nc(Cl)c(-c3c(F)cc(F)cc3F)c(N(C)Cc3ccco3)n2n1 [compound 153]	3.22	–

SMILES	logP (log P by HPLC; [1])	further results
CC(C)C(C)Nc1c(-c2ccc(Cl)cc2Cl)c(Cl)nc2nc(C3CC3)nn12 (single isomer, unassigned) [compound 758]	4.72	–
CC(=O)NC1CCN(c2c(-c3ccc(F)cc3F)c(Cl)nc3nc(C)nn23)C1 (stereo not shown) [compound 450]	–	logP (log P by HPLC; [2]): 1.73
Cc1nc2nc(Cl)c(-c3c(F)cc(F)cc3F)c(N3CCCC3)n2n1 [compound 59]	2.86	–
CCN(CC1CCCO1)c1c(-c2ccc(F)cc2F)c(Cl)nc2nc(C3CC3)nn12 (stereo not shown) [compound 593]	3.78	–
Cc1nc2nc(Cl)c(-c3c(F)cccc3F)c(NC3CCC(C(F)(F)F)CC3)n2n1 (stereo not shown) [compound 190]	3.39	–
CCCN(CC1CCCO1)c1c(-c2ccc(F)cc2F)c(Cl)nc2nc(C)nn12 (stereo not shown) [compound 357]	–	logP (log P by HPLC; [2]): 3.6
Cc1ccccc1Nc1c(-c2ccc(F)cc2F)c(Cl)nc2nc(C(F)(F)F)nn12 [compound 811]	3.99	–
CCc1nc2nc(Cl)c(-c3c(F)cc(F)cc3F)c(N3CCOCC3)n2n1 [compound 92]	2.8	–
Cc1nc2nc(Cl)c(-c3ccccc3Cl)c(N3CCCC3C)n2n1 (stereo not shown) [compound 226]	3.27	–
Cc1nc2nc(Cl)c(-c3c(F)cccc3Cl)c(NCC(C)C)n2n1 [compound 248]	3.14	–
CCc1nc2nc(Cl)c(-c3c(F)cc(F)cc3F)c(NC3CC3)n2n1 [compound 79]	2.85	–
C=C(C)CNc1c(-c2c(F)cc(F)cc2F)c(Cl)nc2nc(C(F)(F)F)nn12 [compound 22]	3.82	–
CCC(C)Nc1c(-c2c(F)cccc2F)c(Cl)nc2nc(C3CC3)nn12 (stereo not shown) [compound 761]	3.44	–
CCOC(=O)CN(C)c1c(-c2c(F)cccc2F)c(Cl)nc2nc(C)nn12 [compound 562]	2.62	–
CC(C)CNc1c(-c2ccc(Cl)cc2Cl)c(Cl)nc2nc(C3CC3)nn12 [compound 790]	4.3	–
CC(Nc1c(-c2c(F)cccc2F)c(Cl)nc2nc(C3CC3)nn12)C(F)(F)F (stereo not shown) [compound 764]	3.98	–
CCN(CCN(C)C)c1c(-c2ccc(F)cc2F)c(Cl)nc2nc(C)nn12 [compound 353]	–	logP (log P by HPLC; [2]): 1.37
Cc1nc2nc(Cl)c(-c3c(F)cccc3F)c(NOCc3ccccc3)n2n1 [compound 427]	–	logP (log P by HPLC; [2]): 2.93
CN(C)C1CCN(c2c(-c3ccc(F)cc3F)c(Cl)nc3nc(C4CC4)nn23)C1 (stereo not shown) [compound 605]	1.46	–
Fc1ccc(-c2c(Cl)nc3nc(C4CC4)nn3c2N2CCC(C(F)(F)F)CC2)c(F)c1 [compound 515]	–	logP (log P by HPLC; [2]): 4.07
CC(C)Nc1c(-c2c(F)cc(F)cc2F)c(Cl)nc2nc(C(F)(F)F)nn12 [compound 11]	3.8	–
Fc1cccc(F)c1-c1c(Cl)nc2nc(C3CC3)nn2c1N1OC2CCC1C2 (stereo not shown) [compound 743]	3.23	–
CCC(C)Nc1c(-c2ccccc2Cl)c(Cl)nc2nc(C3CC3)nn12 (stereo not shown) [compound 494]	–	logP (log P by HPLC; [2]): 3.76
CCN(CCN(C)C)c1c(-c2ccc(F)cc2F)c(Cl)nc2nc(C(F)(F)F)nn12 [compound 547]	1.91	–
Cc1nc2nc(Cl)c(-c3ccccc3Cl)c(N3CCC(C)CC3)n2n1 [compound 230]	3.94	–
Cc1nc2nc(Cl)c(-c3c(F)cccc3F)c(NC(C)C3CCCCC3)n2n1 (stereo not shown) [compound 185]	4	–
Cc1nc2nc(Cl)c(-c3ccc(F)cc3F)c(Nc3ccc(F)cc3)n2n1 [compound 299]	–	logP (log P by HPLC; [2]): 2.7

Source: US7186831B2, “5-halo-2-alkyl[1,2,4]triazolo[1,5-a]pyrimidin-7-amines” (priority 2001, dated 2007)
